Key:
[1] = system: breast cancer cells; conditions: non-patent literature 5; cited from earlier work
[2] = system: gastric tumor of K19-Wnt1/C2mE mice; experiment: Spontaneous gastric cancer model mice, tumor size by X-ray CT; format: in vivo, mouse; conditions: for sizes of tumors by X-ray CT (relative mean tumor area, FIG. 3): per os 3 mg/kg and 30 mg/kg once a day for five weeks, vs vehicle
Experimental: Among human gastric cancer patients, Wnt up-regulation is observed in 30% to 50%, and induction of COX-2 is observed in more than 70%. Therefore, the K19-Wnt1/C2mE is positioned as a mouse model which extrapolates human gastric cancer in terms of molecular mechanism (Nature Review Cancer, Volume 7, Pages 645-658, 2007).
The experiment was conducted using five spontaneous gastric cancer model mice at 50 weeks old (K19-Wnt1/C2mE mice). The mice develop large tumors in stomach at 50 weeks old, and the size of tumor can be measured with X-ray CT. The sizes of tumors were measured with X-ray CT before administration and at week 1, week 2, and week 3 after administration, and the sizes of tumors were compared. Compound A was continuously administered at a dose of 100 mg/kg twice a day for three weeks. A methyl cellulose was used as a vehicle.
Experiment was conducted using six gastric cancer model mice at 46 to 68 weeks old (K19-Wnt1/C2mE mice). Compound B was continuously administered per os at a dose of 3 mg/kg (n=2), 30 mg/kg (n=2) and vehicle control (n=2) once a day for five weeks. The measurements of tumor sizes were conducted in the same manner as example 1. It was confirmed by X-ray CT scanning that the sizes of tumors increased in a time-dependent manner during test period in two vehicle controls. […] In the FIG. 3, a relative value of the mean tumor area after treatment to that before treatment (0 w) set to 100 is shown with time. Solid square (▪) and solid diamond (♦) represent control model mice. Dotted triangle (▴) and dotted cross (X) represent model mice each administered compound B at a dose of 3 mg/kg. Solid star (*) and solid circle (●) represent model mice each administered compound B at a dose of 30 mg/kg.

[3] = system: colon26 (cell line derived from mouse colon cancer); experiment: colon26 subcutaneously implanted to CD2F1 mice, tumor weight; format: in vivo; conditions: vs vehicle
Experimental: A cell line derived from mouse colon cancer, colon26, was subcutaneously implanted to CD2F1 mice. (According to the method described in Int. J. Cancer, Volume 121, Pages 878-883, 2007, this model extrapolates the colon cancer development and growth in terms of molecular mechanism.) When the mean tumor weight reached 100 mg, vehicle (n=10), compound B once a day at a dose of 30 mg/kg (n=10), or compound C twice a day at a dose of 200 mg/kg (n=10) was administered for 20 days. The tumor weight was calculated as (major axis)×(minor axis)^2×0.5 using the measured values. […] In FIG. 4, solid square (▪), solid triangle (▴), and solid circle (●) represent a group administered vehicle (control), a group administered compound B, and a group administered compound C, respectively.

[4] = system: LL/2 (cell line derived from mouse lung cancer); experiment: LL/2 subcutaneously implanted to C57BL/6 mice, tumor weight; format: in vivo; conditions: vs vehicle
Experimental: A cell line derived from mouse lung cancer, LL/2, was subcutaneously implanted to C57BL/6 mice. (According to the method described in Cancer Research. Volume 58, Pages 2583-2587, 1998, this model extrapolates the lung cancer development and growth.) When the mean tumor weight reached 100 mg, vehicle (n=10), compound B once a day at a dose of 0.3 mg/kg (n=10), or compound C twice a day at a dose of 10 mg/kg (n=10) was administered for 25 days. The tumor weight was calculated as (major axis)×(minor axis)^2×0.5 using the measured values. […] In FIG. 5, solid square (▪), solid triangle (▴), and solid circle (●) represent a group administered vehicle (control), a group administered compound B, and a group administered compound C, respectively.

[5] = system: colon cancer cell (HCA-7); conditions: non-patent literature 4; cited from earlier work
[6] = system: azoxymethane-induced colon aberrant crypt foci; conditions: non-patent literature 6; cited from earlier work
[7] = system: intestinal polyp in APC gene knockout mice; conditions: non-patent literature 6; cited from earlier work

O=C(O)CC/C=C\CC[C@H]1[C@H](N2CCOCC2)C(=O)C[C@H]1OCc1ccc(-c2ccccc2)cc1 [AH23848]
metastasis of breast cancer cells [1]: metastasis suppression

C[C@H](NC(=O)c1cc(Cl)ccc1Oc1ccc(F)cc1)c1ccc(C(=O)O)cc1 [Compound A, 4-((1S)-1-{[5-chloro-2-(4-fluorophenoxy)benzoyl]amino}ethyl)benzoic Acid]
histological analysis of excised tissues after the treatment ([2]; 100 mg/kg twice a day for three weeks, visual observation): disappearance of irregular glandular branching in tumor epithelium | relative tumor volume compared with untreated mice (FIG. 2) ([2]; 100 mg/kg twice a day for three weeks, vs 55 to 60 week old untreated K19-Wnt1/C2mE mice (n=7)): tumor was shrunk effectively | tumor mass in CT images at three weeks post-administration ([2]; 100 mg/kg twice a day, all the five mice): tumor mass almost completely disappeared | tumor size in the first week (X-ray CT) ([2]; 100 mg/kg twice a day, two individuals with particularly large tumor before administration): remarkable reductions of the tumor size

C[C@H](NC(=O)c1cc(Cl)cnc1Oc1cccc(F)c1)c1ccc(C(=O)O)cc1 [Compound B]
sizes of tumors by X-ray CT (relative mean tumor area, FIG. 3) [2]: reduced in a dose-dependent manner | tumor size by X-ray CT at a dose of 3 mg/kg ([2]; per os 3 mg/kg once a day for five weeks): effective reduction of tumor size | tumor lesions in autopsy ([2]; per os once a day for five weeks, compared with vehicle control group): remarkable shrinkages of tumor lesions | tumor size (calculated tumor weight, FIG. 4) ([3]; 30 mg/kg once a day for 20 days): Remarkable reductions of tumor size | tumor size (calculated tumor weight, FIG. 5) ([4]; 0.3 mg/kg once a day for 25 days): Remarkable reductions of tumor size

CCc1nc2c(C)nc(C)cc2n1-c1ccc(CCNC(=O)NS(=O)(=O)c2ccc(C)cc2)cc1 [Compound C, 3-[2-(4-{2-ethyl-4,6-dimethyl-1H-imidazo[4,5-c]pyridin-1-yl}phenyl)ethyl]-1-[(4-methylbenzene)sulfonyl]urea]
sizes of tumors by X-ray CT (relative mean tumor area, FIG. 3) [2]: tumor size dramatically reduced | tumor size (calculated tumor weight, FIG. 4) ([3]; 200 mg/kg twice a day for 20 days): Remarkable reductions of tumor size | tumor size (calculated tumor weight, FIG. 5) ([4]; 10 mg/kg twice a day for 25 days): Remarkable reductions of tumor size

CCCCc1nn(-c2ccccc2C(F)(F)F)c(=O)n1Cc1ccc(-c2ccccc2S(=O)(=O)NC(=O)c2sccc2C)cc1 [L-161,982]
growth of colon cancer cell [5]: growth inhibition

CC(C(=O)Nc1ccccc1Cc1ccccc1C(=O)O)c1cccc2ccccc12 (centres unmarked) [ONO-AE2-227]
formation of azoxymethane-induced colon aberrant crypt foci [6]: reduced formation | formation of intestinal polyp [7]: reduced formation of intestinal polyp

CC(C(=O)Nc1cc(C#N)ccc1CCCC(=O)O)c1ccc(F)c2ccccc12 (centres unmarked) [ONO-AE3-208]
metastasis of breast cancer cells [1]: metastasis suppression

Reference: US11840530B2, “Selective EP4 receptor antagonistic substance for treatment of cancer” (AskAt Inc., priority 2009, dated 2023)
